Results taken from patent publication US8476197B2, “Aminopropenoates as fungicides” (priority 2009, dated 2013).
Read-outs that look alike come from different tables or passages of the source. Marks after values point to notes of the source that are not given here.

Legend:
Phaedon cochleariae = details: spray on Chinese cabbage leaf-disks, 500 g/ha, after 7 days
Method: • Solvent: 78.0 parts by weight of acetone • 1.5 parts by weight of dimethylformamide • Emulsifier: 0.5 parts by weight of alkylaryl polyglycolether
Chinese cabbage (Brassica pekinesis) leaf-disks are sprayed with a preparation of the active ingredient of the desired concentration. Once dry, the leaf disks are infested with mustard beetle larvae (Phaedon cochleariae). After 7 days mortality in % is determined. 100% means that all beetle larvae have been killed and 0% means that none of the beetle larvae have been killed.

Myzus persicae = details: spray on Chinese cabbage leaf-disks, 500 g/ha, after 6 days
Method: Chinese cabbage (Brassica pekinesis) leaf-disks infected with all instars of the green peach aphid (Myzus persicae), are sprayed with a preparation of the active ingredient at the desired concentration. After 6 days mortality in % is determined. 100% means that all aphids have been killed; 0% means that none of the aphids have been killed.

Boophilus microplus = Boophilus microplus test (injection); type: in vivo; details: injection into adult engorged female ticks, 20 μg/animal, after 7 days
Method: Boophilus microplus—Test Injection)
• Solvent: dimethyl sulfoxide
Five adult engorged female ticks (Boophilus microplus) are injected with 1 μl compound solution into the abdomen. Ticks are transferred into replica plates and incubated in a climate chamber for a period of time. Egg deposition of fertile eggs is monitored. […] 100% means that all eggs are infertile; 0% means that all eggs are fertile.

[1] = LogP, preparation examples; HPLC method ([a], [b] or [c]) not stated

| Compound | Log P (pH 7.5) | activity (mortality) (Phaedon cochleariae) [%] | activity (mortality) (Myzus persicae) [%] | other results |
| --- | --- | --- | --- | --- |
| CCOC(=O)C(C#N)=C(NC(C)C(C)C)c1cccnc1-c1ccc(Cl)c(Cl)c1 (centres unmarked) [Compound 1475] | 4.56^[c]; 4.56^[b] | 100 | – | Log P (pH 2.3): 4.56^[c]; 4.56^[b] |
| CCOC(=O)C(C#N)=C(NC(C)C(=O)NC)c1ncc(C(F)(F)F)cc1Cl (centres unmarked) [Compound 600] | – | – | 100 | Log P (pH 2.7): 2.41^[a] |
| CCOC(=O)C(C#N)=C(NC(C)C(C)C)c1cccnc1-c1cncnc1 (centres unmarked) [Compound 1591] | 2.42 | 100 | – | – |
| CC(C)NC(=O)C(C#N)=C(NC(C)C(C)C)c1cccnc1Cl (centres unmarked) [Compound 957] | 3.39 | 100 | – | Log P (pH 2.3): 3.37 |
| CCOC(=O)C(C#N)=C(NC(C)c1nccs1)c1ncc(C(F)(F)F)cc1Cl (racemic) [Compound 40] | – | 83 | – | Log P (pH 2.7): 3.37^[a] |
| C#CC(C)(C)NC(=C(C#N)C(=O)OC)c1cccnc1Cl [Compound 1028] | – | 83 | – | Log P (pH 2.7): 2.23^[a] |
| CCOC(=O)C(C#N)=C(NC(C)c1nccs1)c1cccnc1SC (racemic) [Compound 62] | 2.73 | – | 100 | – |
| CCOC(=O)C(C#N)=C(NC1CCCNC1=O)c1cccnc1Cl (racemic) [Compound 239] | 1.6 | – | – | activity (mortality; 100% means all eggs infertile) (Boophilus microplus): 100%; Log P (pH 2.3): 1.67 |
| CNC(=O)C(C#N)=C(NC(C)C1CC1)c1cccnc1Cl (mixture of isomers) [Compound 1244] | – | – | 100 | – |
| CSCC(C)NC(=C(C#N)C(=O)OC(C)C)c1cccnc1Cl (centres unmarked) [Compound 597] | 3.03 | – | 90 | – |
| CCOC(=O)/C(C#N)=C(\NCCc1ncc(C(F)(F)F)cc1Cl)c1cccnc1Cl [ethyl (2Z)-3-(2-chloropyridin-3-yl)-3-({2-[3-chloro-5-(trifluoromethyl)pyridin-2-yl]ethyl}amino)-2-cyanoacrylate] | – | – | – | chromatographic logP [1]: 3.57 |
